Source: patent publication US20080004247A1, “Combinations of Statins with Bronchodilators” (ASTRAZENECA AB, priority 2004, published 2008)

Assay: Meta-analysis of 2 one-year clinical trials: incidence of severe COPD exacerbations with and without concomitant statins
Type: in vivo, patients
Conditions: severe exacerbations = need for a treatment course of oral corticosteroids
Procedure: A meta-analysis was performed from 2 one-year clinical trials in moderate to severe COPD. Patients treated with budesonide (Pulmicort®), formoterol (Oxis®), formoterol+budesonide (Symbicort®) or Placebo were analysed with and without statins as concomitant medication. The incidence of severe exacerbations, defined as need for a treatment course of oral corticosteroids, was determined.

[1] = PLUS STATINS as concomitant medication

SMILES	Incidence of exacerbations per year (EXCLUDING STATINS)	Incidence of exacerbations per year [1]
CCCC1O[C@@H]2C[C@H]3[C@@H]4CCC5=CC(=O)C=C[C@]5(C)[C@H]4[C@@H](O)C[C@]3(C)[C@]2(C(=O)CO)O1 (stereo partly shown) [Budesonide, budesonide]	0.9 (n = 379) per year	0.7 (n = 8) per year
COc1ccc(CC(C)NCC(O)c2ccc(O)c(NC=O)c2)cc1 (stereo not shown) [Formoterol, formoterol]	1.0 (n = 388) per year	0.4 (n = 9) per year
